Reference: BindingDB's records for doi:10.1021/jm7012858 (Wyeth Research, 2008)

Biological target: Phosphatidylinositol 3-kinase regulatory subunit alpha/4,5-bisphosphate 3-kinase catalytic subunit alpha isoform (Homo sapiens, UniProt P42336)
Experiment: PI3K Inhibition Assay
Description: Inhibition of PI3K enzyme activity is measured in a microtiter plate-based fluorescence polarization (FP) assay.

Chain of Phosphatidylinositol 3-kinase regulatory subunit alpha/4,5-bisphosphate 3-kinase catalytic subunit alpha isoform (P27986 whole entry, canonical isoform): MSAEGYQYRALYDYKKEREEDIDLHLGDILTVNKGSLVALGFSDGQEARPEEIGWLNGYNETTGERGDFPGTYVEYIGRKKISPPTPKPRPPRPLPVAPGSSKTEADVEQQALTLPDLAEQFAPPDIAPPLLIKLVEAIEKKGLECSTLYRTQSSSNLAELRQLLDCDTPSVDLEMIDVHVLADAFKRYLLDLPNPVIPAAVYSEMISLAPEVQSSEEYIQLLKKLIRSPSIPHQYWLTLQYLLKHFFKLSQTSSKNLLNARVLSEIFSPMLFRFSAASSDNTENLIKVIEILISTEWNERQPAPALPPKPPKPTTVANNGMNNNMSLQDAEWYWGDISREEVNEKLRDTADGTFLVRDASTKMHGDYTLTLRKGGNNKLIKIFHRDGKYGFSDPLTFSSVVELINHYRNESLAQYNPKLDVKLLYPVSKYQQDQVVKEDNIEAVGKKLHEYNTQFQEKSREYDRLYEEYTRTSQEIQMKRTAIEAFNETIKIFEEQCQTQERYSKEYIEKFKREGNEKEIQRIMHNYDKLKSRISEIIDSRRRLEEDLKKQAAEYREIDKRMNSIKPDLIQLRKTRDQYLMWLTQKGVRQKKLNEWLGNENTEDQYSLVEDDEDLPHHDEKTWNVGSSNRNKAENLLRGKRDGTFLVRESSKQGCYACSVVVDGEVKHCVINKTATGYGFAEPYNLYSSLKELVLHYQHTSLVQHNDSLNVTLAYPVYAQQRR
Chain of Phosphatidylinositol 3-kinase regulatory subunit alpha/4,5-bisphosphate 3-kinase catalytic subunit alpha isoform (P42336 whole entry, canonical isoform): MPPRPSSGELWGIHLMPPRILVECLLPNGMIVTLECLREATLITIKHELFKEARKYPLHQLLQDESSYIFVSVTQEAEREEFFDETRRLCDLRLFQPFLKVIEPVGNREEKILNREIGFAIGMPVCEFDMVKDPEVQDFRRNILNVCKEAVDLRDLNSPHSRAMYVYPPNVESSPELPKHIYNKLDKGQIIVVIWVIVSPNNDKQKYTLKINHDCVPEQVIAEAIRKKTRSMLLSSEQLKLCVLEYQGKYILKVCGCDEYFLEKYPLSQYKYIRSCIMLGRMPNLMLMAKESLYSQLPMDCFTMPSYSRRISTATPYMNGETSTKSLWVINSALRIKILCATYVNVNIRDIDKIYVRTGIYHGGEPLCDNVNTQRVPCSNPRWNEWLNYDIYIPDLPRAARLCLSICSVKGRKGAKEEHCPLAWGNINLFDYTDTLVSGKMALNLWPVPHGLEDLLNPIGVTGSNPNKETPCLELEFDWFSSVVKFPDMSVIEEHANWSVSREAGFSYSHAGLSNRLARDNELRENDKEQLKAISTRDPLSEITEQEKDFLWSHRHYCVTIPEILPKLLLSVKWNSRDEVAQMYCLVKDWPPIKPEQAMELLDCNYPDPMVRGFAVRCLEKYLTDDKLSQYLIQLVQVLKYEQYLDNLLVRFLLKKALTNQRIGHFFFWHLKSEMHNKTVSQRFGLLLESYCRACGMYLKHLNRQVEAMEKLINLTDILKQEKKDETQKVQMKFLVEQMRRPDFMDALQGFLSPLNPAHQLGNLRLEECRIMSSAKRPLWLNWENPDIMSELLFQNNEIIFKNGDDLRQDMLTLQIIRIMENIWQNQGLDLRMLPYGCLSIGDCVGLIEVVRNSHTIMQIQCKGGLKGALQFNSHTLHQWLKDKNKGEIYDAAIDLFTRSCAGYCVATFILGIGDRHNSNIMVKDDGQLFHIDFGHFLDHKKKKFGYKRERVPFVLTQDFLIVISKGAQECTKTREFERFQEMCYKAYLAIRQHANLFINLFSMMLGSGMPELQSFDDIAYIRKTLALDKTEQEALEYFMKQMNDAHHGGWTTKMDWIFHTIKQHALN

In the case of `CCN(C=C1C(=O)O[C@H](COC)[C@]2(C)C3=C(C(=O)C(=O)C12)C1CC[C@H](O)[C@@]1(C)C[C@H]3OC(C)=O)CCCN(C)C` (stereo partly drawn) [(2R,3S,6E,14S,15S,17R)-6-({[3-(dimethylamino)propyl](ethyl)amino}methylidene)-8,14-dihydroxy-3-(methoxymethyl)-2,15-dimethyl-5,9-dioxo-4-oxatetracyclo[8.7.0.0^{2,7}.0^{11,15}]heptadeca-1(10),7-dien-17-yl acetate], the IC50 is reported as 12 nM.
`CCN(C=C1C(=O)O[C@H](COC)[C@]2(C)C3=C(C(=O)C(=O)C12)C1CC[C@H](O)[C@@]1(C)C[C@H]3OC(C)=O)CCN(C)C` (stereo partly drawn) [(2R,3S,6E,14S,15S,17R)-6-({[2-(dimethylamino)ethyl](ethyl)amino}methylidene)-8,14-dihydroxy-3-(methoxymethyl)-2,15-dimethyl-5,9-dioxo-4-oxatetracyclo[8.7.0.0^{2,7}.0^{11,15}]heptadeca-1(10),7-dien-17-yl acetate] gave an IC50 of 5 nM.
In the case of `COC[C@H]1OC(=O)C(=CN2CCN(Cc3ccccc3)CC2)C2C(=O)C(=O)C3=C([C@H](OC(C)=O)C[C@@]4(C)C3CC[C@@H]4O)[C@]21C` (stereo partly drawn) [(2R,3S,6E,14S,15S,17R)-6-[(4-benzylpiperazin-1-yl)methylidene]-8,14-dihydroxy-3-(methoxymethyl)-2,15-dimethyl-5,9-dioxo-4-oxatetracyclo[8.7.0.0^{2,7}.0^{11,15}]heptadeca-1(10),7-dien-17-yl acetate], the IC50 is reported as 87 nM.
In the case of `COC[C@H]1OC(=O)C(=CN(C)CC(O)CO)C2C(=O)C(=O)C3=C([C@H](OC(C)=O)C[C@@]4(C)C3CC[C@@H]4O)[C@]21C` (stereo partly drawn) [(2R,3S,6E,14S,15S,17R)-6-{[(2,3-dihydroxypropyl)(methyl)amino]methylidene}-8,14-dihydroxy-3-(methoxymethyl)-2,15-dimethyl-5,9-dioxo-4-oxatetracyclo[8.7.0.0^{2,7}.0^{11,15}]heptadeca-1(10),7-dien-17-yl acetate], the IC50 is reported as 199 nM.
With `CCNC=C1C(=O)O[C@H](COC)[C@]2(C)C3=C(C(=O)C(=O)C12)C1CC[C@H](O)[C@@]1(C)C[C@H]3OC(C)=O` (stereo partly drawn) [(2R,3S,6Z,14S,15S,17R)-6-[(ethylamino)methylidene]-8,14-dihydroxy-3-(methoxymethyl)-2,15-dimethyl-5,9-dioxo-4-oxatetracyclo[8.7.0.0^{2,7}.0^{11,15}]heptadeca-1(10),7-dien-17-yl acetate] the IC50 (pH 7.5, 22 °C) was > 10000 nM.
`COC[C@H]1OC(=O)C(=CN2CCC(c3ccccc3)CC2)C2C(=O)C(=O)C3=C([C@H](OC(C)=O)C[C@@]4(C)C3CC[C@@H]4O)[C@]21C` (stereo partly drawn) [(2R,3S,6E,14S,15S,17R)-8,14-dihydroxy-3-(methoxymethyl)-2,15-dimethyl-5,9-dioxo-6-[(4-phenylpiperidin-1-yl)methylidene]-4-oxatetracyclo[8.7.0.0^{2,7}.0^{11,15}]heptadeca-1(10),7-dien-17-yl acetate] showed an IC50 of 172 nM.
With `COC[C@H]1OC(=O)C(=CN(CCN(C)C)C(C)(C)C)C2C(=O)C(=O)C3=C([C@H](OC(C)=O)C[C@@]4(C)C3CC[C@@H]4O)[C@]21C` (stereo partly drawn) [(2R,3S,6Z,14S,15S,17R)-6-({tert-butyl[2-(dimethylamino)ethyl]amino}methylidene)-8,14-dihydroxy-3-(methoxymethyl)-2,15-dimethyl-5,9-dioxo-4-oxatetracyclo[8.7.0.0^{2,7}.0^{11,15}]heptadeca-1(10),7-dien-17-yl acetate] the IC50 (pH 7.5, 22 °C) was 9.6 nM.
In the case of `COC[C@H]1OC(=O)C(=CN2CCN(c3ccccc3)CC2)C2C(=O)C(=O)C3=C([C@H](OC(C)=O)C[C@@]4(C)C3CC[C@@H]4O)[C@]21C` (stereo partly drawn) [(2R,3S,6E,14S,15S,17R)-8,14-dihydroxy-3-(methoxymethyl)-2,15-dimethyl-5,9-dioxo-6-[(4-phenylpiperazin-1-yl)methylidene]-4-oxatetracyclo[8.7.0.0^{2,7}.0^{11,15}]heptadeca-1(10),7-dien-17-yl acetate], the IC50 is reported as 56 nM.
In the case of `COC[C@H]1OC(=O)C(=CN2CCC(N3CCCCC3)CC2)C2C(=O)C(=O)C3=C([C@H](OC(C)=O)C[C@@]4(C)C3CC[C@@H]4O)[C@]21C` (stereo partly drawn) [(2R,3S,6E,14S,15S,17R)-8,14-dihydroxy-3-(methoxymethyl)-2,15-dimethyl-5,9-dioxo-6-{[4-(piperidin-1-yl)piperidin-1-yl]methylidene}-4-oxatetracyclo[8.7.0.0^{2,7}.0^{11,15}]heptadeca-1(10),7-dien-17-yl acetate], the IC50 is reported as 63 nM.
`COC[C@H]1OC(=O)C(=CNCCCN(C)C)C2C(=O)C(=O)C3=C([C@H](OC(C)=O)C[C@@]4(C)C3CC[C@@H]4O)[C@]21C` (stereo partly drawn) [(2R,3S,6Z,14S,15S,17R)-6-({[3-(dimethylamino)propyl]amino}methylidene)-8,14-dihydroxy-3-(methoxymethyl)-2,15-dimethyl-5,9-dioxo-4-oxatetracyclo[8.7.0.0^{2,7}.0^{11,15}]heptadeca-1(10),7-dien-17-yl acetate] was tested, and the IC50 (pH 7.5, 22 °C) was > 10000 nM.
In the case of `COC[C@H]1OC(=O)C(=CN2CCCCC2)C2C(=O)C(=O)C3=C([C@H](OC(C)=O)C[C@@]4(C)C3CC[C@@H]4O)[C@]21C` (stereo partly drawn) [(2R,3S,6E,14S,15S,17R)-8,14-dihydroxy-3-(methoxymethyl)-2,15-dimethyl-5,9-dioxo-6-(piperidin-1-ylmethylidene)-4-oxatetracyclo[8.7.0.0^{2,7}.0^{11,15}]heptadeca-1(10),7-dien-17-yl acetate], the IC50 is reported as 104 nM.
Molecule `COC[C@H]1OC(=O)C(=CN2CCC(=O)CC2)C2C(=O)C(=O)C3=C([C@H](OC(C)=O)C[C@@]4(C)C3CC[C@@H]4O)[C@]21C` (stereo partly drawn) [(2R,3S,6E,14S,15S,17R)-8,14-dihydroxy-3-(methoxymethyl)-2,15-dimethyl-5,9-dioxo-6-[(4-oxopiperidin-1-yl)methylidene]-4-oxatetracyclo[8.7.0.0^{2,7}.0^{11,15}]heptadeca-1(10),7-dien-17-yl acetate] has an IC50 of 60 nM.
`COC[C@H]1OC(=O)C(=CN(CCO)CCO)C2C(=O)C(=O)C3=C([C@H](OC(C)=O)C[C@@]4(C)C3CC[C@@H]4O)[C@]21C` (stereo partly drawn) [(2R,3S,6E,14S,15S,17R)-6-{[bis(2-hydroxyethyl)amino]methylidene}-8,14-dihydroxy-3-(methoxymethyl)-2,15-dimethyl-5,9-dioxo-4-oxatetracyclo[8.7.0.0^{2,7}.0^{11,15}]heptadeca-1(10),7-dien-17-yl acetate] gave an IC50 of 918 nM.
`COC[C@H]1OC(=O)C(=CN2CCCC2)C2C(=O)C(=O)C3=C([C@H](OC(C)=O)C[C@@]4(C)C3CC[C@@H]4O)[C@]21C` (stereo partly drawn) [(2R,3S,6Z,14S,15S,17R)-8,14-dihydroxy-3-(methoxymethyl)-2,15-dimethyl-5,9-dioxo-6-(pyrrolidin-1-ylmethylidene)-4-oxatetracyclo[8.7.0.0^{2,7}.0^{11,15}]heptadeca-1(10),7-dien-17-yl acetate] was tested, and the IC50 (pH 7.5, 22 °C) was 496 nM.
Work on `COC[C@H]1OC(=O)c2coc3c2[C@@]1(C)C1=C(C3=O)C2CC[C@H](O)[C@@]2(C)C[C@H]1OC(C)=O` (stereo partly drawn) [(1R,3R,5S,6S,18S)-6-hydroxy-18-(methoxymethyl)-1,5-dimethyl-11,16-dioxo-13,17-dioxapentacyclo[10.6.1.0^{2,10}.0^{5,9}.0^{15,19}]nonadeca-2(10),12(19),14-trien-3-yl acetate] yielded an IC50 (pH 7.5, 22 °C) of 2.7 nM.
